Results as given in PubChem BioAssay (NCI).
Values joined by “and” are separate entries in the source; they are usually repeats but may differ in a detail not shown here. Equal values may be shown once.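 All cell lines were grown in 96-well plates and treated with compound for 48 hours. The concentration for 50% growth inhibition is given as GI50. At the TGI there is no net growth.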 Numbered stars: 1 amine (or outer) side, 2 acyl side, 3 side chain; on linkers, the order of the positions; unused ones are H or OH. Bridge positions count the residues as written; N and C are the ends. Square brackets hold non-standard residues; d marks the D form. Peptide text beside a SMILES is read from it. I, II: the chains in the order shown. Actinocin(1to9) = Cc1c2oc3c(C)ccc(C(=O)[*:2])c3nc-2c(C(=O)[*:1])c(N)c1=O; NMeV = CN[CH](C(=O)O)C(C)C; Sar = CNCC(=O)O

How the values were obtained:
Assay in all cases: NCI anticancer screen, dose series, 48 h
HOP-62 NSCLC = system: HOP-62 NSCLC
OVCAR-3 ovarian = system: OVCAR-3 ovarian
A549 NSCLC = system: A549 NSCLC
LOX IMVI melanoma = system: LOX IMVI melanoma
UACC-257 melanoma = system: UACC-257 melanoma
A498 renal = system: A498 renal
SF-268 CNS = system: SF-268 CNS
SNB-19 CNS = system: SNB-19 CNS
RPMI-8226 leukemia = system: RPMI-8226 leukemia
NCI/ADR-RES ovarian = system: NCI/ADR-RES ovarian
OVCAR-4 ovarian = system: OVCAR-4 ovarian
NCI-H23 lung = system: NCI-H23 lung
MDA-N = system: MDA-N
SK-MEL-2 melanoma = system: SK-MEL-2 melanoma
HT29 colon = system: HT29 colon

Compound	TGI (HOP-62 NSCLC)	TGI (OVCAR-3 ovarian)	TGI (A549 NSCLC)	TGI (LOX IMVI melanoma)	TGI (UACC-257 melanoma)	TGI (A498 renal)	TGI (SF-268 CNS)	TGI (SNB-19 CNS)	TGI (RPMI-8226 leukemia)	TGI (NCI/ADR-RES ovarian)	TGI (OVCAR-4 ovarian)	TGI (NCI-H23 lung)	TGI (MDA-N)	TGI (SK-MEL-2 melanoma)	TGI (HT29 colon)	GI50 (NCI/ADR-RES ovarian)
O=C(O)CCCN=C(C(=NCCCC(=O)O)c1ccccc1)c1ccccc1	> 100 µM	> 100 µM	> 100 µM	> 100 µM	> 100 µM	> 100 µM	> 100 µM	> 100 µM	> 100 µM	> 100 µM	> 100 µM	> 100 µM	> 100 µM	> 100 µM	–	–
O=Cc1ccc2[nH]c(=O)oc2c1	> 100 µM	> 100 µM	–	> 100 µM	> 100 µM	> 100 µM	> 100 µM	> 100 µM	> 100 µM	> 100 µM	–	> 100 µM	> 100 µM	> 100 µM	> 100 µM	–
Cc1cn(C2CC(O)C(Cn3nncc3Cn3ccc(=O)[nH]c3=O)O2)c(=O)[nH]c1=O (stereo not drawn)	> 100 µM	> 100 µM	> 100 µM	> 100 µM	> 100 µM	> 100 µM	> 100 µM	> 100 µM	> 100 µM	> 100 µM	> 100 µM	> 100 µM	> 100 µM	> 100 µM	> 100 µM	–
CCOC(=O)c1c(CN2CCOCC2)n(Cc2ccccc2)c2c1cc(O)c1nc(C)c(C)nc12	51.1 µM	> 100 µM	> 100 µM	> 100 µM	> 100 µM	55.3 µM	54.4 µM	> 100 µM	> 100 µM	> 100 µM	> 100 µM	> 100 µM	> 100 µM	44.5 µM	> 100 µM	–
CCC(C)C1NC(=O)C(NC(=O)c2c3nc4c(C(=O)NC5C(=O)NC(C(C)C)C(=O)N6CCCC6C(=O)N(C)CC(=O)N(C)C(C(C)C)C(=O)OC5C)ccc(C)c4oc-3c(C)c(=O)c2N)C(C)OC(=O)C(C(C)C)N(C)C(=O)CN(C)C(=O)C2CCCN2C1=O (stereo not drawn) (I: TIP[Sar][NMeV] / II: TVP[Sar][NMeV]; ester I:1-I:C, II:1-II:C; linker I:N-II:N via Actinocin(1to9); configuration not given here)	–	–	13.9 µM	–	0.0266 µM	0.00433 µM	–	1.23 µM	0.0323 µM	3.56 µM	0.739 µM	0.0553 µM and 0.0126 µM	0.0244 µM	0.111 µM	–	0.0239 µM
NNC(=O)CSc1nnc(CCCCCCCCc2nnc(SCC(=O)NN)o2)o1	> 100 µM	–	> 100 µM	> 100 µM	> 100 µM	> 100 µM	> 100 µM	> 100 µM	> 100 µM	> 100 µM	> 100 µM	> 100 µM	> 100 µM	> 100 µM	> 100 µM	–
C=C(C)COC(=O)COCC(=O)OCC(=C)C	> 100 µM	> 100 µM	> 100 µM	–	> 100 µM	> 100 µM	> 100 µM	> 100 µM	> 100 µM	> 100 µM	> 100 µM	> 100 µM	> 100 µM	–	> 100 µM	–
S=c1sscc1N1CCSc2ssc(=S)c21	–	–	> 100 µM	> 100 µM	> 100 µM	77.4 µM	> 100 µM	63.5 µM	> 100 µM	> 100 µM	29.8 µM	69.8 µM	> 100 µM	> 100 µM	> 100 µM	–
